Results reported in article PMC8518915, “Evaluation of 4‐(4‐Fluorobenzyl)piperazin‐1‐yl]‐Based Compounds as Competitive Tyrosinase Inhibitors Endowed with Antimelanogenic Effects” (Chemmedchem, 2021).
Entries after “also recorded” stand apart in the source; their conditions may differ. Like-named read-outs stand apart in the source and are kept apart here. Blank lines part the entries; values can stand above or below the molecule they belong to.

Experiments:
[1] = system: AbTYR; conditions: cited from earlier work; for IC50: efficacy against AbTYR; for mode of inhibition: prototypical AbTYR inhibitor
[2] = molecular target: T1, TYR from Agaricus bisporus (AbTYR) (Agaricus bisporus, UniProt C7FF04); conditions: AbTYR kinetic studies; cited from earlier work
T1 construct: purchased Sigma Chemical Co. (St. Louis, MO, USA)
T1 sequence (C7FF04 1-392 limits assumed): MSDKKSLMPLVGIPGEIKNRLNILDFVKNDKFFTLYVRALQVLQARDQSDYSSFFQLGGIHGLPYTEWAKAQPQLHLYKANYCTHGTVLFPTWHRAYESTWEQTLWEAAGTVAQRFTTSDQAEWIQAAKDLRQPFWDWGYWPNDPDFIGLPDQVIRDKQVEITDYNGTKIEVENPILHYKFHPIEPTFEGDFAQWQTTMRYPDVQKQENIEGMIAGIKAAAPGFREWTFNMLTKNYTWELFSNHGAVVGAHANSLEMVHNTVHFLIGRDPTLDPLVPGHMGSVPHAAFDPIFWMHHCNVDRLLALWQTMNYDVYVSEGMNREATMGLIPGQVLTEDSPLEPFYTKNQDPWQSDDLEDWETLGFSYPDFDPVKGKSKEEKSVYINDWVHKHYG

[3] = system: B16F10 cells; assay: MTT assay for cell viability; type: cell-based, Murine; conditions: B16F10 melanoma cells, 48 h, at the concentration inhibiting tyrosinase activity
Procedure: (§1) MTT assay was used to evaluate the biosafety effectiveness of 23, 25 and 26. Cells were treated with different concentration of each compound (0–100 μM), for 48 h, to determine the potential cytotoxic effect on B16F10 cells. […] To achieve a deeper characterization of most promising and potent inhibitor 26, we further examined its inhibitory effect on the tyrosinase activity in the cellular model. DOPA staining assay was performed using lysates of B16F10 cells untreated or treated with hormone with or without the tested compound 26. […] This was evident with the appearance of a darker band compared to that of untreated control (Figure 7). […] As result, the inhibitory effects of the compound 26 was also confirmed in the cellular model.
(§2) The viability of B16F10 cells was detected by the colorimetric 3‐(4,5‐dimethylthiazol‐2‐yl)‐2,5‐diphenyltetrazolium bromide (MTT) assay. A density of 5x10^3 cells/well, in the absence or presence of compounds (ranging from 1 μM to 100 μM), were seeded in 96‐well plates. The cells were incubated for 48 h at the temperature of 37 °C. MTT solution (0.5 mg/mL) was added at the end of incubation time. The medium was removed after 3 h of incubation at 37 °C. Then, DMSO was added to the precipitates and the absorbance was determined at 560 nm using a microplate reader (Multiskan FC – Thermo Scientific). The cell viability was expressed as the percentage of the amount of living cells in treated samples relative to untreated controls (100 % viability). The mean value and standard deviation (SD) were calculated from triplicate experiments.

[4] = MTT assay for cell viability; type: cell-based, Murine; conditions: mouse, B16F10 melanoma cells, B16F10 cells, 100 μM (highest concentration)
Procedure: as §1, §2

[5] = molecular target: T1, TYR from Agaricus bisporus (AbTYR); assay: Kinetic analysis of the tyrosinase inhibition (Lineweaver‐Burk plots); type: biochemical; conditions: L‐DOPA 0.6–5 mM
Procedure: Compounds 23, 25 and 26 were selected for kinetic studies to obtain more information about the mode of action against TYR; thereby their inhibitory effects on diphenolase activity were measured using increasing concentration of L‐DOPA. (0.6–5 mM). The reaction mixture consisted of four different concentrations of L‐DOPA (0.6–5 mM), the substrate, and AbTYR in […] (0.05 M, pH 6.8).
Compounds 23 and 25 (0.2, 0.4, and 0.8 μM), 26 (0.09, 0.18, and 0.36 μM) were added to the reaction mixture. The Michaelis‐Menten constant (Km) and maximal velocity (Vmax) of tyrosinase were determined by Lineweaver‐Burk plots.
A series of experiments were performed to determine the mode of inhibition of compounds 23, 25, 26 on tyrosinase. The reaction mixture consisted of four different concentrations of the substrate L‐DOPA (0.6–5 mM), and mushroom tyrosinase in phosphate buffer (0.05 M, pH 6.8). In addition, three different concentrations of compounds 23, 25, 26 (0.2–0.4–0.8 μM) were used for the analysis. Preincubation and measurement time were the same as discussed in mushroom tyrosinase inhibition assay. The Michaelis‐Menten constant (Km) and maximal velocity (Vmax) of tyrosinase were determined by Lineweaver‐Burk plots.

[6] = system: tyrosinase activity in B16F10 cells; assay: Tyrosinase zymography (L‐DOPA staining) of cell lysates; type: cell-based, Murine
Procedure: as §1
The tyrosinase activity was performed by DOPA‐staining assay as previously reported but with slight modifications.[29] A day after seeding the B16F10 cells (6X104 cells/mL) the culture medium was changed by the same medium supplemented with either α‐MSH alone or α‐MSH plus compound (0–100 μM)) or kojic acid (100 μM). After incubation for 48 h, cells were washed and lysed using phosphate buffer (50 mM, pH 6.8) containing Triton X‐100 (1 %) and phenylmethyl‐sulfonyl fluoride (0.1 mM). Cellular lysates were centrifugated at 12000 g for 20 min at 4 °C. Bradford method was used to determine the protein content using BSA as standard. […]

melting point: 100 to 102 °C
SMILES: O=C(Cc1ccccc1Cl)N1CCN(Cc2ccc(F)cc2)CC1 [Compound 10, 1‐[4‐(4‐Fluorobenzyl)piperazin‐1‐yl]‐2‐(2‐chlorophenyl)ethan‐1‐one]

melting point: 120 to 122 °C
SMILES: O=C(Cc1ccc(Cl)cc1)N1CCN(Cc2ccc(F)cc2)CC1 [Compound 12, 1‐[4‐(4‐Fluorobenzyl)piperazin‐1‐yl]‐2‐(4‐chlorophenyl)ethan‐1‐one]

melting point: 240 to 242 °C
SMILES: O=C(Cc1cccc(Br)c1)N1CCN(Cc2ccc(F)cc2)CC1 [Compound 14, 1‐[4‐(4‐Fluorobenzyl)piperazin‐1‐yl]‐2‐(3‐bromophenyl)ethan‐1‐one]

melting point: 88 to 90 °C
SMILES: O=C(Cc1ccccc1[N+](=O)[O-])N1CCN(Cc2ccc(F)cc2)CC1 [Compound 16, 1‐[4‐(4‐Fluorobenzyl)piperazin‐1‐yl]‐2‐(2‐nitrophenyl)ethan‐1‐one]

melting point: 83 to 84 °C
SMILES: O=C(Cc1cccc([N+](=O)[O-])c1)N1CCN(Cc2ccc(F)cc2)CC1 [Compound 17, 1‐[4‐(4‐Fluorobenzyl)piperazin‐1‐yl]‐2‐(3‐nitrophenyl)ethan‐1‐one]

melting point: 234 to 238 °C
SMILES: COc1ccc(CC(=O)N2CCN(Cc3ccc(F)cc3)CC2)cc1 [Compound 19, 1‐[4‐(4‐Fluorobenzyl)piperazin‐1‐yl]‐2‐(4‐methoxyphenyl)ethan‐1‐one]

melting point: 141 to 142 °C
SMILES: O=C(c1ccc(Cl)cc1[N+](=O)[O-])N1CCN(Cc2ccc(F)cc2)CC1 [Compound 27, 1‐[4‐(4‐Fluorobenzyl)piperazin‐1‐yl]‐(4‐chloro‐2‐nitro‐phenyl)methanone]

melting point: 130 to 131 °C
SMILES: O=C(c1cc(Cl)ccc1[N+](=O)[O-])N1CCN(Cc2ccc(F)cc2)CC1 [Compound 28, 1‐[4‐(4‐Fluorobenzyl)piperazin‐1‐yl]‐(5‐chloro‐2‐nitro‐phenyl)methanone]

melting point: 133 to 134 °C
SMILES: COc1ccc(C(=O)N2CCN(Cc3ccc(F)cc3)CC2)c([N+](=O)[O-])c1 [Compound 31, 1‐[4‐(4‐Fluorobenzyl)piperazin‐1‐yl]‐(4‐methoxy‐2‐nitro‐phenyl)methanone]

melting point: 151 to 152 °C
SMILES: COc1ccc([N+](=O)[O-])c(C(=O)N2CCN(Cc3ccc(F)cc3)CC2)c1 [Compound 32, 1‐[4‐(4‐Fluorobenzyl)piperazin‐1‐yl]‐(5‐methoxy‐2‐nitro‐phenyl)methanone]

The remaining lines, values behind:

SMILES: CCOc1cccc(C(C)=NNC(N)=S)c1 [Compound 1, 2‐(1‐(3‐ethoxyphenyl)ethylidene)hydrazine‐1carbothioamide]
IC50 [1]: 0.85 µM
mode of inhibition [1]: competitive

SMILES: Oc1ccc(C=Nc2nnc(S)s2)c(O)c1 [Compound 2, 4‐(((5‐mercapto‐1,3,4‐thiadiazol‐2‐yl)imino)methyl)benzene‐1,3‐diol]
IC50 [1]: 0.25 µM
mode of inhibition [1]: uncompetitive

SMILES: O=C(CN1CCC(Cc2ccccc2)CC1)N1CCN(c2ccc(O)cc2)CC1 [Compound 3, 2‐(4‐benzyl‐1‐piperidyl)‐1‐[4‐(4‐hydroxyphenyl)piperazin‐1‐yl]ethanone]
IC50 [1]: 3.8 µM
mode of inhibition [1]: noncompetitive

SMILES: COc1cc2[nH]cc(C(=O)CCN3CCC(Cc4ccc(F)cc4)CC3)c2cc1OC [Compound 4, 1‐(5,6‐dimethoxy‐1H‐indol‐3‐yl)‐3‐(4‐(4‐fluorobenzyl)piperidin‐1‐yl)propan‐1‐one]
IC50 [1]: 7.56 µM
mode of inhibition [1]: mixed‐type

SMILES: O=C(c1ccc([N+](=O)[O-])cc1[N+](=O)[O-])N1CCN(Cc2ccc(F)cc2)CC1 [Compound 5 c, [4‐(4‐fluorobenzyl)piperazin‐1‐yl](2,4‐dinitrophenyl)methanone]
mode of inhibition of diphenolase activity [2]: competitive inhibitor

SMILES: O=C(Cc1ccc([N+](=O)[O-])cc1)N1CCN(Cc2ccc(F)cc2)CC1 [Compound 18, 1‐[4‐(4‐Fluorobenzyl)piperazin‐1‐yl]‐2‐(4‐nitrophenyl)ethan‐1‐one]
melting point: 98 to 100 °C

SMILES: O=C(c1cccc(F)c1C(F)(F)F)N1CCN(Cc2ccc(F)cc2)CC1 [Compound 23, 1‐[4‐(4‐Fluorobenzyl)piperazin‐1‐yl]‐[3‐fluoro‐2‐(trifluoromethyl)phenyl]methanone]
cytotoxic effect [3]: no cytotoxic effect; also recorded: no cytotoxicity
viability at 48 h, 100 µM [4]: > 90%
mode of inhibition of diphenolase activity [5]: competitive inhibitors

SMILES: O=C(c1cc(F)ccc1C(F)(F)F)N1CCN(Cc2ccc(F)cc2)CC1 [Compound 25, 1‐[4‐(4‐Fluorobenzyl)piperazin‐1‐yl]‐[5‐fluoro‐2‐(trifluoromethyl)phenyl]methanone]
cytotoxic effect [3]: no cytotoxic effect; also recorded: no cytotoxicity
viability at 48 h, 100 µM [4]: > 90%
mode of inhibition of diphenolase activity [5]: competitive inhibitors

SMILES: O=C(c1cccc(Cl)c1[N+](=O)[O-])N1CCN(Cc2ccc(F)cc2)CC1 [Compound 26, 1‐[4‐(4‐Fluorobenzyl)piperazin‐1‐yl]‐(3‐chloro‐2‐nitro‐phenyl)methanone]
melting point: 91 to 92 °C
cytotoxic effect [3]: absence of cytotoxicity; also recorded: no cytotoxic effect; also recorded: no cytotoxicity
viability at 48 h, 100 µM [4]: > 90%
mode of inhibition of diphenolase activity [5]: competitive inhibitors
antimelanogenic effect ([6]; B16F10 cells): exerted antimelanogenic effect; also recorded: displayed antimelanogenic effects
tyrosinase activity in cellular model (L‐DOPA staining) ([6]; lysates of α‐MSH-treated B16F10 cells, compound 0–100 μM, 48 h): decreased in a dose‐response manner

SMILES: O=c1cc(CO)occ1O [KA, 5‐hydroxy‐2‐(hydroxymethyl)‐4H‐pyran‐4‐one]
mode of inhibition ([1]; classification from literature): competitive
